Experimental data from patent publication US7632801B2, “Identification and use of antiviral compounds that inhibit interaction of host cell proteins and viral proteins required for viral replication” (Mount Sinai School of Medicine of New York University, priority 1995, dated 2009).

System: Influenza A/WSN/Virus
Type: cell-based

## Ala Ser Gln Gly Thr Lys Arg Ser Tyr Glu Gln Met Glu Thr Asp Gly Glu Arg Gln (ASQGTKRSYEQMETDGERQ; listed as Homo sapiens) [NP-NLS oligopeptide, 19-amino acid NP-NLS oligopeptide corresponding to amino acids 2-20 of NP]
  inhibition of viral growth (hemagglutination titer): thousand-fold
